Assay results published in article PMC10761119, “Phosphorylation-state dependent intraneuronal sorting of Aβ differentially impairs autophagy and the endo-lysosomal system” (Autophagy, 2023).

Tests used:
SH-SY5Y cells = experiment: Quantitative western immunoblotting of autophagy and endo-lysosomal proteins; type: cell-based, human; conditions: Aβ 1 µM, 24 h, n = 6, N = 3
Procedure: (§1) SH-SY5Y cells seeded on D1, were treated with Aβ variants (1 μM) on D3 in DMEM/F-12 media without serum and antibiotics. Control treatment included treatment with equal volume of 10 mM NaOH solution used for preparing the Aβ stock solutions, in respective cell culture medium. SH-SY5Y cells, after 16 h of transient expression of the reporter constructs, were treated with different Aβ variants, autophagy modulator substrates and respective controls in DMEM/F-12, FCS^− PS^− media for the mentioned time points. After treatment, cells were washed twice with PBS and with 0.025% trypsin-EDTA in PBS to get rid of cell bound Aβ, followed by subsequent washings with PBS again. Cells were either collected by scraping using a cell-scraper or fixed with 4% PFA-PBS for 15 min at RT, for further immunocytochemistry experiments. Collected treatment media was centrifuged at 1000 g for 5 min, pellet discarded and supernatant frozen at −20°C until further usage.
(§2) Cells were collected by scraping and mechanically homogenized in hypotonic D buffer (10 mM Tris-HCl, pH 7.4, 10 mM NaCl, 0.1 mM EGTA, 25 mM glycerol 2-phosphate, 1 mM DTT) containing protease and phosphatase inhibitors by repeated suspension through a 23 G × 1” needle. Post-nuclear supernatant (PNS) was collected by centrifugation of the mechanically homogenized cellular material at 2,000 g for 5 min. The pellet was the nuclear material. Nuclear pellet was then resuspended in Buffer C (5 mM HEPES, 1.5 mM MgCl2, 0.2 mM EDTA, 0.5 mM DTT, 0.05% NP40 [Sigma Aldrich, 18876], 30% glycerol, pH 7.9) containing protease and phosphatase inhibitors, ultrasonicated at minimum voltage, three currents in four cycles, followed by repetitive cooling of samples on ice. The nuclear fraction was the supernatant collected after centrifugation at 16,100 g for 15 min. The PNS collected from the first step was centrifuged at 16,100 g for 60 min, and supernatant was used as the crude cytosolic fraction. The pellet contained the membrane materials, which were re-homogenized in hypotonic D buffer and again centrifuged at 16,100 g for 60 min. The supernatant was discarded, pellet was resuspended in STEN-lysis buffer (20 mM Tris-HCl, pH 7.5, 150 mM NaCl, 1 mM EDTA, 1 mM EGTA, 1% Triton X-100, 2.5 mM sodium pyrophosphate [Sigma Aldrich, P1835], 1 mM β-glycerophosphate [Sigma Aldrich, G9422]) containing protease and phosphatase inhibitors, and the membrane fraction was the supernatant collected after centrifugation at 16,100 g for 15 min. The crude cytosolic fraction was then further fractionated at 100,000 g for 70 min at 4°C under vacuum. The resultant supernatant was the soluble cytosolic fraction. The pellet was resuspended in STEN lysis buffer and centrifuged at 16,100 g for 15 min. The resultant supernanant represented the insoluble cytosolic fraction.
(§3) For different cellular fractions prepared as described earlier, the protein content was estimated using the standard Pierce™ BCA protein assay kit (ThermoFisher Scientific, 23225). For direct comparison between the samples, equal amount of protein was loaded. Samples were dissolved in Laemmli buffer and were boiled at 95°C for 5 min. They were loaded on a precast 4–12% NuPage® Bis-Tris gels (Life technologies, NP033–5/6, WG140–2/3). Gels and prestained protein molecular weight markers were purchased from Life technologies. The separated proteins were electro-transferred onto a 0.2-μm nitrocellulose (NT) membrane (Amersham, 1060001) for 1 h 45 min. After blotting, the NT membranes were boiled in PBS for 10 min. Ponceau staining was done to monitor protein loading of samples. The blots were then incubated in 5% skim milk in TBS-T (TBS [50 mM Tris-HCl, pH 7.5, 150 mM NaCl] containing 0.1% Tween 20 [Sigma Aldrich, P1379]) for 1 h at RT. Blots were incubated overnight at 4°C in the primary antibody solution (respective dilutions in TBS-T, Table 1). Blots were washed and incubated with appropriate secondary antibodies conjugated either with HRP or fluorescent dyes for 1 h. […]

primary cortical neurons = experiment: SDS-PAGE and immunoblotting of marker proteins in membrane and cytosolic fractions; type: cell-based, mouse; conditions: Aβ 500 nM, 4 h, normalized to Actin/GAPDH, fold change wrt control cells, mean ± S.E.M., n = 6, N = 3; for CTSD mature* level / CTSD pro* level / EEA1* level / RAB5* level / RAB7* level / RAB11* level / SQSTM1/p62* level / UBQ* level: cytosolic fraction; for ATG3 level / ATG5 level / ATG12–ATG5 level / ATG14 level / LAMP2 level / LC3-I level / LC3-II level / ULK1/Atg1 level: membrane fraction
Procedure: [Worded in the source for another cell line; used here, by the source, with some conditions changed.] as §1, §2, §3

“amyloid-β phosphorylated at serine residue 8 [p-Ser8Aβ]” was tested, and the “ATG1-ULK1 kinase complex level” value (SH-SY5Y cells; western immunoblot vs control) was “not”, the EEA1 level (SH-SY5Y cells; western immunoblot vs control) was “increased” and the RAB5 level (SH-SY5Y cells; western immunoblot vs control) was “increased”. For the same substance, the “Levels of LC3-I and II” value (SH-SY5Y cells; western immunoblot, compared to control cells) was “significantly increased levels”, the “CTSD mature* level” value (primary cortical neurons) was 0.94 ± 0.09 fold change and the “CTSD pro* level” value (primary cortical neurons) was 0.99 ± 0.04 fold change. For the same substance, the “EEA1* level” value (primary cortical neurons) was 1.65 ± 0.21 fold change, the “RAB5* level” value (primary cortical neurons) was 1.26 ± 0.09 fold change and the “RAB7* level” value (primary cortical neurons) was 0.95 ± 0.17 fold change. For the same substance, the “RAB11* level” value (primary cortical neurons) was 1.75 ± 0.29 fold change, the “SQSTM1/p62* level” value (primary cortical neurons) was 1.49 ± 0.06 fold change and the “UBQ* level” value (primary cortical neurons) was 1.62 ± 0.14 fold change. For the same substance, the ATG3 level (primary cortical neurons) was 1.23 ± 0.38 fold change, the ATG5 level (primary cortical neurons) was 1.18 ± 0.1 fold change and the “ATG12–ATG5 level” value (primary cortical neurons) was 1.18 ± 0.2 fold change. For the same substance, the ATG14 level (primary cortical neurons) was 1.17 ± 0.05 fold change, the LAMP2 level (primary cortical neurons) was 0.97 ± 0.06 fold change and the LC3-I level (primary cortical neurons) was 1.43 ± 0.15 fold change. For the same substance, the LC3-II level (primary cortical neurons) was 1.95 ± 0.14 fold change and the ULK1/Atg1 level (primary cortical neurons) was 0.88 ± 0.22 fold change.

“amyloid-β phosphorylated at serine residue 26 [p-Ser26Aβ]” was tested, and the “Intracellular levels of the ATP6V0A1 subunit of the V-ATPase” value (SH-SY5Y cells; PNS fraction) was “significantly increased levels”, the “Levels of nuclear transcription factor EB (TFEB)” value (SH-SY5Y cells; nuclear material) was “significantly increased levels” and the “ATG1-ULK1 kinase complex level” value (SH-SY5Y cells; western immunoblot vs control) was “increased”. For the same substance, the CTSD level (SH-SY5Y cells; western immunoblot vs control) was “selectively increased”, the EEA1 level (SH-SY5Y cells; western immunoblot vs control) was “no significant effect” and the LAMP2 level (SH-SY5Y cells; western immunoblot vs control) was “selectively increased”. The RAB5 level (SH-SY5Y cells; western immunoblot vs control) was “increased”, the RAB7 level (SH-SY5Y cells; western immunoblot vs control) was “strongest effects” and the RAB11 level (SH-SY5Y cells; western immunoblot vs control) was “strongest effects”. For the same substance, the “CTSD mature* level” value (primary cortical neurons) was 1.46 ± 0.11 fold change, the “CTSD pro* level” value (primary cortical neurons) was 1.19 ± 0.05 fold change and the “EEA1* level” value (primary cortical neurons) was 1.28 ± 0.12 fold change. The “RAB5* level” value (primary cortical neurons) was 1.47 ± 0.11 fold change, the “RAB7* level” value (primary cortical neurons) was 1.25 ± 0.12 fold change and the “RAB11* level” value (primary cortical neurons) was 1.89 ± 0.06 fold change. For the same substance, the “SQSTM1/p62* level” value (primary cortical neurons) was 1.41 ± 0.08 fold change, the “UBQ* level” value (primary cortical neurons) was 2.11 ± 0.4 fold change and the ATG3 level (primary cortical neurons) was 1.38 ± 0.32 fold change. For the same substance, the ATG5 level (primary cortical neurons) was 1.31 ± 0.11 fold change, the “ATG12–ATG5 level” value (primary cortical neurons) was 1.43 ± 0.23 fold change and the ATG14 level (primary cortical neurons) was 1.58 ± 0.17 fold change. The LAMP2 level (primary cortical neurons) was 1.23 ± 0.07 fold change, the LC3-I level (primary cortical neurons) was 1.45 ± 0.12 fold change and the LC3-II level (primary cortical neurons) was 1.42 ± 0.2 fold change. It also gave a ULK1/Atg1 level (primary cortical neurons) of 1.74 ± 0.36 fold change.

With “non-phosphorylated amyloid-β [npAβ, reference compound]” the “ATG1-ULK1 kinase complex level” value (SH-SY5Y cells; western immunoblot vs control) was “increased”, the ATG3 level (SH-SY5Y cells; western immunoblot vs control) was “not” and the EEA1 level (SH-SY5Y cells; western immunoblot vs control) was “no significant”. The RAB5 level (SH-SY5Y cells; western immunoblot vs control) was “no significant”, the RAB7 level (SH-SY5Y cells; western immunoblot vs control) was “no significant” and the RAB11 level (SH-SY5Y cells; western immunoblot vs control) was “smallest effect”. The “CTSD mature* level” value (primary cortical neurons) was 1.08 ± 0.07 fold change, the “CTSD pro* level” value (primary cortical neurons) was 0.99 ± 0.06 fold change and the “EEA1* level” value (primary cortical neurons) was 1.22 ± 0.15 fold change. The “RAB5* level” value (primary cortical neurons) was 1.08 ± 0.07 fold change, the “RAB7* level” value (primary cortical neurons) was 1.1 ± 0.08 fold change and the “RAB11* level” value (primary cortical neurons) was 1.47 ± 0.22 fold change. For the same substance, the “SQSTM1/p62* level” value (primary cortical neurons) was 1.19 ± 0.02 fold change, the “UBQ* level” value (primary cortical neurons) was 1.36 ± 0.19 fold change and the ATG3 level (primary cortical neurons) was 1.23 ± 0.21 fold change. The ATG5 level (primary cortical neurons) was 1.08 ± 0.11 fold change, the “ATG12–ATG5 level” value (primary cortical neurons) was 1.04 ± 0.09 fold change and the ATG14 level (primary cortical neurons) was 1.27 ± 0.08 fold change. It also gave an LAMP2 level (primary cortical neurons) of 1.16 ± 0.08 fold change, an LC3-I level (primary cortical neurons) of 1.37 ± 0.06 fold change and an LC3-II level (primary cortical neurons) of 1.48 ± 0.06 fold change. The ULK1/Atg1 level (primary cortical neurons) was 1.37 ± 0.35 fold change.
